Reference: US20100048727A1, “PERFLUOROKETONE COMPOUNDS AND USES THEREOF” (priority 2007, published 2010)

Key:
GV sPLA2 = target: T1, GV sPLA2 (Homo sapiens, UniProt P39877); experiment: GV sPLA2 activity assay (release of [14C]-palmitic acid from mixed micelles); assay type: biochemical; details: mean and standard error; for Average percent inhibition GV sPLA2: 0.091 mole fraction, n = 3
T1 sequence (P39877 21-138): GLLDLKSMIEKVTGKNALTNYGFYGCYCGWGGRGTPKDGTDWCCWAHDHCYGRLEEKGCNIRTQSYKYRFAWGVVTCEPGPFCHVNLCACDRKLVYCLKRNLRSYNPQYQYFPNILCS
Experimental: (§1) Inhibition of phospholipase A2 by perfluoroketone compounds. […] (2002) J. Med. Chem. 45: 2891-2893; Kokotos, G. et al. (2004). J. Med. Chem. 47: 3615-3628). The standard GVIA iPLA2 activity assay utilizes DPPC/Triton™ X-100 mixed micelles at a ratio of 1:4 as previously described (Stephens D. et al. (2006). J. Med. Chem., 49: 2821-2828). GV sPLA2 activity was measured in an assay similar to the assays for GIVA cPLA2 and GVIA iPLA2.

human GIVA cPLA2 = target: T2, human GIVA cPLA2 (Homo sapiens, UniProt P47712); experiment: GIVA cPLA2 specific mixed micelle assay; assay type: biochemical; details: mean and standard error; for Average percent inhibition GIVA cPLA2: 0.091 mole fraction, n = 3
T2 sequence (P47712 1-749): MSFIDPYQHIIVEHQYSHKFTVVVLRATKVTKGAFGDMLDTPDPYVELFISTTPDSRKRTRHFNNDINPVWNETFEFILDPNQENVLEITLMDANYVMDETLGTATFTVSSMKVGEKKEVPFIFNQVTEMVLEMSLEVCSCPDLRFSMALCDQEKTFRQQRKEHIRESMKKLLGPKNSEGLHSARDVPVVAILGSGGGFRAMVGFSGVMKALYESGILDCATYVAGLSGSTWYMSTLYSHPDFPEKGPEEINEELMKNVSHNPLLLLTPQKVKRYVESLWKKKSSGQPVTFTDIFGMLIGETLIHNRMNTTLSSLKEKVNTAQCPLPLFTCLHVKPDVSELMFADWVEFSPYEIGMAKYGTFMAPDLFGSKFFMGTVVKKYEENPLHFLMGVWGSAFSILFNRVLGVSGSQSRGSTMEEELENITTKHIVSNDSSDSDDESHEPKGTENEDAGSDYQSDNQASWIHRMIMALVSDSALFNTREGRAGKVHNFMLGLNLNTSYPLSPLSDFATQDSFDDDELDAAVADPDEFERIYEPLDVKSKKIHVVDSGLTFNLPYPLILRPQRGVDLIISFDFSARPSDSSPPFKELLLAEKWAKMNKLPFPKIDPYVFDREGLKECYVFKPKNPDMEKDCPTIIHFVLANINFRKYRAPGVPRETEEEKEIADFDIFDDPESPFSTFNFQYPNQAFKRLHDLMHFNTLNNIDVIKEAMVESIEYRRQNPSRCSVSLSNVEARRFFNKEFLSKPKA
Experimental: as §1

GVIA iPLA2 = target: T3, GVIA iPLA2 (Homo sapiens, UniProt O60733); experiment: standard GVIA iPLA2 activity assay (DPPC/Triton X-100 mixed micelles); assay type: biochemical; details: mean and standard error; for inhibition at 0.091 mole fraction: n = 3, read-out: Average percent inhibition GVIA iPLA2; for Average percent inhibition GVIA iPLA2: 0.091 mole fraction, n = 3
T3 sequence (O60733 1-806): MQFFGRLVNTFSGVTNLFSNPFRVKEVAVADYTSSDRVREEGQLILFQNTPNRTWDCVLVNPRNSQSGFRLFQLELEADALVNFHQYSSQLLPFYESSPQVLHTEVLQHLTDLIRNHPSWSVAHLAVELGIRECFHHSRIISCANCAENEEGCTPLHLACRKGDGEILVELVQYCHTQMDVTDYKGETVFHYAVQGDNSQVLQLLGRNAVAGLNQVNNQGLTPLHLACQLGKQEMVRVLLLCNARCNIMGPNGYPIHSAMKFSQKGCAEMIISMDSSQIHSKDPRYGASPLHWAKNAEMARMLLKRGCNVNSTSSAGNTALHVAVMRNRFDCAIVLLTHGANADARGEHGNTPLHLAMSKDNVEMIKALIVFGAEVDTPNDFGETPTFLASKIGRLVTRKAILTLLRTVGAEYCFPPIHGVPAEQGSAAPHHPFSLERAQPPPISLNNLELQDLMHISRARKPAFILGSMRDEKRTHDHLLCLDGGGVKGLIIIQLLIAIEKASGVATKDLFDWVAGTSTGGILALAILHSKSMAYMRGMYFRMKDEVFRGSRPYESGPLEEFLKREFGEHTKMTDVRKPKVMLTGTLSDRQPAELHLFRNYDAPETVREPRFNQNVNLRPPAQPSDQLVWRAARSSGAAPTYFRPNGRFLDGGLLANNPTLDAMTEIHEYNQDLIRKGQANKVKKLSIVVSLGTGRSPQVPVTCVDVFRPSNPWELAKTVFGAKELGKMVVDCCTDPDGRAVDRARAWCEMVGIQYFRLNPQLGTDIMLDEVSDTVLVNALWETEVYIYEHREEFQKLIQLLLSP
Experimental: as §1

EAE-induced SJL/J mice = experiment: Clinical course of EAE in SJL/J mice treated with fluoroketone compounds; assay type: in vivo

| SMILES | Average percent inhibition GV sPLA2 (GV sPLA2) [%] | Average percent inhibition GIVA cPLA2 (human GIVA cPLA2) [%] | inhibition at 0.091 mole fraction (GVIA iPLA2) [%] | Average percent inhibition GVIA iPLA2 (GVIA iPLA2) [%] | severity and progression of the disease (EAE) (EAE-induced SJL/J mice; delayed treatment from day 11 after immunization, 2 weeks, i.p., vs vehicle) | maximum clinical disability score (EAE-induced SJL/J mice; treatment before onset of symptoms, daily for 3 weeks from day 6, course until day 40, 5-point scale) | melting point [°C] | inhibition at 0.091 mole fraction (GV sPLA2; n = 3, read-out: Average percent inhibition GV sPLA2) [%] | inhibition at 0.091 mole fraction (human GIVA cPLA2; n = 3, read-out: Average percent inhibition GIVA cPLA2) [%] |
| --- | --- | --- | --- | --- | --- | --- | --- | --- | --- |
| CCCCCCCCCCOc1ccc(CCCCC(=O)C(F)(F)F)cc1 [FKGK4, 1,1,1-Trifluoro-6-(4-decyloxy-phenyl)-2-hexanone] | 84 ± 7 | 95 ± 2 | 94 ± 8 |  |  |  |  |  |  |
| CCCCCCCCCCOc1ccc(CCC(=O)C(F)(F)F)cc1 [FKGK3, 1,1,1-Trifluoro-4-(4-decyloxy-phenyl)-2-butanone] | 80 ± 6 | 96 ± 2 |  | 94 ± 8 |  |  |  |  |  |
| CCCCCCOc1ccc(CCCCC(=O)C(F)(F)F)cc1 [FKGK2, 1,1,1-Trifluoro-6-(4hexyloxy-phenyl)-2-hexanone] | 86 ± 2 | 92 ± 3 |  | 91 ± 4 | did not show any significant improvement | around 0.5 grade |  |  |  |
| O=C(CCc1ccc(OCc2ccccc2)cc1)C(F)(F)F [FKGK5, 1,1,1-Trifluoro-4-(4-benzyloxy-phenyl)-2-butanone] | 49 ± 12 | 88 ± 1 |  | 71 ± 14 |  |  | 71 to 72 |  |  |
| CCCCCCCCCCCCCCC(F)C(=O)C(F)(F)F (stereo not drawn) [FKGK8, 1,1,1,3-Tetrafluoro-2-heptadecanone] | 86 ± 10 | 94 ± 2 |  | 93 ± 4 |  |  |  |  |  |
| O=C(CCCCCc1ccccc1)C(F)(F)C(F)(F)F [FKGK12, 1,1,1,2,2-Pentafluoro-8-phenyl-3-octanone] | 46 ± 8 | 56 ± 4 |  | 98 ± 5 |  |  |  |  |  |
| CCCCCCOc1ccc(CCC(=O)C(F)(F)C(F)(F)F)cc1 [FKGK14, 1,1,1,2,2-Pentafluoro-5-(4-hexyloxy-phenyl)-3-pentanone] | 86 ± 4 | 73 ± 4 |  | 95 ± 5 |  |  |  |  |  |
| O=C(CCCCCCc1ccccc1)C(F)(F)C(F)(F)F [FKGK13, 1,1,1,2,2-Pentafluoro-9-phenyl-3-nonanone] | 75 ± 10 | 65 ± 12 |  | 98 ± 4 |  |  |  |  |  |
| CCCCCCOc1ccc(CCC(=O)C(F)(F)F)cc1 [FKGK1, 1,1,1-Trifluoro-4-(4-hexyloxy-phenyl)-2-butanone] | 82 ± 8 | 91 ± 2 |  | 85 ± 4 |  |  |  |  |  |
| O=C(C(F)(F)F)C(F)(F)CCCc1ccccc1 [FKGK7, 1,1,1,3,3-Pentafluoro-6-phenyl-hexan-2-one] |  |  | 49 ± 12 |  |  |  |  | 59 ± 12 | 27 ± 3 |
